The AUC(0-t) is exposure summed from dosing to a finite time, without extrapolation to infinity. Read a high AUC(0-t) as high exposure. As usually defined, the AUC is concentration integrated over time. A lower AUC goes with less exposure. What is called Cmax is the highest concentration seen after dosing.

Where two headings read alike, the source gives them in different places.

The nature of one series: clinical. Further details: species or system human. The settings on record: in vivo. From the text: A multiple-dose, open-label, dose-escalation study was designed in which 12 healthy male subjects were scheduled to receive 1 of 2 treatments once daily for 3 days with an 11-day washout period between doses.
The objective of this Phase 1 study was to assess the safety and pharmacokinetic (PK) profile of multiple dose administration of 0.25 g and 1.00 g of a 0.07% transdermal estradiol gel in healthy male volunteers. The transdermal gel used had the following formulation: […]
Twelve (12) healthy subjects were enrolled and participated in two open-label treatment periods. Subjects who successfully completed the screening process checked into the research center on Day 1, approximately 1 to 2 hours prior to the first blood draw of each treatment period. For Treatment Period A, 0.25 g of the 0.07% gel was to be administered once daily for three days. During Treatment Period B, 1.0 g of the 0.07% gel was to be administered once daily for three days. Dosing days were to be separated by a washout period of at least 11 days.
Diagnosis and Main Criteria for Inclusion: Healthy adult male volunteers, 18-45 years of age, with body mass index (BMI) between 18 and 30 kg/m2, inclusive, and minimum weight of 50 kg (110 pounds).

A short description of series [1]: Solubility of ethyl oleate as a function of ethanol concentration. In kind it is physicochemical. The settings on record: for Amount of Ethyl Oleate solubilised in g/100 g: room temperature, 0.24% estradiol, 5% propylene glycol, 2% oleic acid, Qsf water. The text has this: In particular, it appears that the more ester is present in the composition, the better the storage depot effect is. […] An upper limit is imposed, however, by the solubility of the fatty acid ester in the composition.

On to `C[C@]12CC[C@@H]3c4ccc(O)cc4CC[C@H]3[C@@H]1CC[C@@H]2O` [Estradiol, estradiol], for which the “dose proportionality of exposure” value in “clinical” is “less than proportional increase in exposure”. In the series “clinical” (male, human), the “AUC0-24” value turned out to be 0.7522 ng·h/mL, the “AUC0-120” value came out at 2.933 ng·h/mL, the “AUC24-48” value is 0.661 ng·h/mL and the “AUC48-72” value came to 0.6581 ng·h/mL. For the same molecule, in “clinical” (male, human), the “AUC(0-t)” value came to 4.436 ng·h/mL, the “Cmax-overall” value was determined as 0.0646 ng/mL, the “increase in overall systemic exposure based on AUC0-120” value turned out to be 1.26 fold and the “increase in peak systemic exposure based on Cmax0-120” value stood at 1.95 fold. For the same molecule, in “clinical” (male, human), the “increase of estradiol concentrations above baseline” value is recorded as 2- to 3 fold, the “ratio (0.25 g: 1.00 g) for estradiol AUC0-120” value came out at 80.01% and the “ratio (0.25 g: 1.00 g) for estradiol Cmax0-120” value came to 47.89%. The Tmax in the series “clinical” (male, human, 0.25 g of 0.07% estradiol gel (Example 10) once daily for 3 days, healthy males, Mean, N 12, read-out: Tmax-overall) worked out at 54.8 h. Also, the Tmax in “clinical” (male, human, 0.25 g, first dosing interval, read-out: Estradiol Tmax after administration of the gel) is roughly 13 h. Moreover, the Tmax in the series “clinical” (male, human, 0.25 g, third dosing interval, read-out: Estradiol Tmax after administration of the gel) was roughly 3 h. For the same molecule, in the series “clinical” (male, human, 1.00 g of 0.07% estradiol gel (Example 10) once daily for 3 days, healthy males, Mean, n 11, read-out: Tmax-overall), the Tmax was found to be 29.8 h. In the series “clinical” (male, human, AUC0-24 (hr * pg/mL)), this molecule yielded an AUC(0-t) of 0.477 ng·h/mL. For the same molecule, the area under the curve AUC(0-t) in the series “clinical” (male, human, AUC0-120 (hr * pg/mL)) came to 2.33 ng·h/mL. This molecule also had an exposure AUC(0-t) in the series “clinical” (male, human, AUC0-t (hr * pg/mL)) of 3.78 ng·h/mL. Also, in “clinical” (male, human, AUC24-48 (hr * pg/mL)), the area under the curve (AUC) was found to be 0.503 ng·h/mL. The molecule also gave an AUC in the series “clinical” (male, human, AUC48-72 (hr * pg/mL)) of 0.477 ng·h/mL. For the same molecule, in “clinical” (male, human, Cmax-overall (pg/mL)), the Cmax amounted to 0.0331 ng/mL.

As for `CCCCCCCC/C=C\CCCCCCCC(=O)OCC` [Ethyl Oleate, ethyl oleate], the “Amount of Ethyl Oleate solubilised in g/100 g” value is recorded as 0.65 g/100 g in series [1] (EtOH (96% v/v) 64%); 0.91 g/100 g in series [1] (EtOH (96% v/v) 66%); 1.28 g/100 g in series [1] (EtOH (96% v/v) 68%); 1.60 g/100 g in series [1] (EtOH (96% v/v) 70%); 2.19 g/100 g in series [1] (EtOH (96% v/v) 72%); 2.40 g/100 g in series [1] (EtOH (96% v/v) 73%). Also, the “maximum ethyl oleate that can be dissolved” value in series [1] (formulation comprising 72% ethanol) was no more than 2.2%.

Values taken from US11040043B2, “Transdermal pharmaceutical compositions comprising active agents” (priority 2009, dated 2021).
